Here are results for three compounds from article PMC9136116, “The activity of the serotonergic 5-HT1A receptor is modulated by voltage and sodium levels” (The Journal of Biological Chemistry, 2022).

Test [1] addresses T1, 5-HT1A receptor (Homo sapiens, UniProt P08908).
T1 sequence (P08908 1-422): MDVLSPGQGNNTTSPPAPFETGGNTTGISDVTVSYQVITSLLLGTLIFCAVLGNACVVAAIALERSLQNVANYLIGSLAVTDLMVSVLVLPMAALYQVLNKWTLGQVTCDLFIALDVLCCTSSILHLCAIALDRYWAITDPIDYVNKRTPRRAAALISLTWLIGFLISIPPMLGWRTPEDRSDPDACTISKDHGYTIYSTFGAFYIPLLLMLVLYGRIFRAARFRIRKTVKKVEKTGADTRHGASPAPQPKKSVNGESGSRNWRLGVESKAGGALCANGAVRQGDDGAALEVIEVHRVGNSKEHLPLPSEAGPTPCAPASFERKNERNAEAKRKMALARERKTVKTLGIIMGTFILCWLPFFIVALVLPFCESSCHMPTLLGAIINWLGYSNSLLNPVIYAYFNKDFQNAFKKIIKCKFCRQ
As to the kind of experiment: cell-based. More on the design: Emax: dose or concentration left out as unconfirmed. The note with it: for EC50: EC50 (activation of receptor-mediated GIRK current), wt receptor, 72 mM Na+ solution.

Test [2] has as its target T1, 5-HT1A receptor. The conditions noted are these: for voltage dependence of potency: −80 mV versus +40 mV.

SMILES strings stand for the structures. Like-named read-outs stand apart in the source and are kept apart here.

On to `O=C1CC2(CCCC2)CC(=O)N1CCCCN1CCN(c2ncccn2)CC1` [buspirone], for which, at 5-HT1A receptor [1] (read-out: maximal response relative to the maximal response produced by 5-HT), the Emax is roughly 42%. Besides, at 5-HT1A receptor [2], the “voltage dependence of potency” value is listed as “not voltage dependent”.
Turning to `O=C1[C@@H]2[C@H]3CC[C@H](C3)[C@@H]2C(=O)N1CCCCN1CCN(c2ncccn2)CC1` [tandospirone], the results for the EC50 on 5-HT1A receptor [1] (holding potential +40 mV) and at 5-HT1A receptor [1] (holding potential −80 mV) were 938 nM and 194 nM, respectively. Besides, the Emax at 5-HT1A receptor [1] (read-out: maximal response relative to the maximal response evoked by 5-HT at the same oocytes) was roughly 55%. Besides, the “voltage dependence of potency” value at 5-HT1A receptor [2] is listed as “voltage-dependent”.
For the compound `NCCc1c[nH]c2ccc(O)cc12` [5-HT, 5-hydroxytryptamine], at 5-HT1A receptor [2] (5 μM 5-HT, Na+-free versus 72 mM Na+), the “effect of removal of extracellular Na+ on maximal I5-HT” value is given as “did not affect the maximal current”. Further, the “decrease of potency by depolarization” value at 5-HT1A receptor [2] (+40 mV versus −80 mV, 72 mM Na+) is “more than 20 fold”.

Usually EC50 stands for the concentration giving half of the maximal effect.
